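Dose response: 5 concentrations. Exposure: 48 h. Format: 96-well plates. Endpoint: linear interpolation; highest concentration if not reached. The concentration for full growth arrest is given as TGI.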
Columns and labels:
Test in all cases: growth of human tumour cells (NCI), 48 h
[1] = test system: 786-0 renal
[2] = test system: A498 renal
[3] = test system: A549 NSCLC
[4] = test system: ACHN renal
[5] = test system: BT-549 breast
[6] = test system: CAKI-1 renal
[7] = test system: COLO 205 colon
[8] = test system: DU-145 prostate
[9] = test system: EKVX NSCLC
[10] = test system: HCT-116 colon
[11] = test system: HCT-15 colon
[12] = test system: HL-60(TB) leukemia
[13] = test system: HOP-62 NSCLC
[14] = test system: HOP-92 NSCLC
[15] = test system: HS 578T breast
[16] = test system: HT29 colon
[17] = test system: IGROV1 ovarian
[18] = test system: K-562 leukemia
[19] = test system: KM12 colon
[20] = test system: LOX IMVI melanoma
[21] = test system: M14 melanoma
[22] = test system: MALME-3M melanoma
[23] = test system: MCF7 breast
[24] = test system: MDA-MB-231 breast
[25] = test system: MDA-MB-435
[26] = test system: MDA-N
[27] = test system: MOLT-4 leukemia
[28] = test system: NCI-H226 lung
[29] = test system: NCI-H23 lung
[30] = test system: NCI-H460 lung
[31] = test system: NCI-H522 lung
[32] = test system: NCI/ADR-RES ovarian
[33] = test system: OVCAR-4 ovarian
[34] = test system: OVCAR-5 ovarian
[35] = test system: OVCAR-8 ovarian
[36] = test system: PC-3 prostate
[37] = test system: RXF 393 renal
[38] = test system: SF-268 CNS
[39] = test system: SF-295 CNS
[40] = test system: SF-539 CNS
[41] = test system: SK-MEL-2 melanoma
[42] = test system: SK-MEL-28 melanoma
[43] = test system: SK-MEL-5 melanoma
[44] = test system: SK-OV-3 ovarian
[45] = test system: SN12C renal
[46] = test system: SNB-19 CNS
[47] = test system: SNB-75 CNS
[48] = test system: SR leukemia
[49] = test system: SW-620 colon
[50] = test system: T-47D breast
[51] = test system: TK-10 renal
[52] = test system: U251 CNS
[53] = test system: UACC-257 melanoma
[54] = test system: UACC-62 melanoma
[55] = test system: UO-31 renal
[56] = test system: CCRF-CEM leukemia
[57] = test system: HCC-2998 colon
[58] = test system: OVCAR-3 ovarian
[59] = test system: RPMI-8226 leukemia

## O=[N+]([O-])c1ccc(C(Nc2ccccc2)P(c2ccccc2)c2ccccc2)cc1 (stereo not given)
[1]
  TGI: > 100 µM
[2]
  TGI: > 100 µM
[3]
  TGI: > 100 µM
[4]
  TGI: > 100 µM
[5]
  TGI: > 100 µM
[6]
  TGI: > 100 µM
[7]
  TGI: > 100 µM
[8]
  TGI: > 100 µM
[9]
  TGI: > 100 µM
[10]
  TGI: > 100 µM
[11]
  TGI: > 100 µM
[12]
  TGI: > 100 µM
[13]
  TGI: > 100 µM
[14]
  TGI: > 100 µM
[15]
  TGI: > 100 µM
[16]
  TGI: > 100 µM
[17]
  TGI: > 100 µM
[18]
  TGI: > 100 µM
[19]
  TGI: > 100 µM
[20]
  TGI: > 100 µM
[21]
  TGI: > 100 µM
[22]
  TGI: > 100 µM
[23]
  TGI: > 100 µM
[24]
  TGI: > 100 µM
[25]
  TGI: > 100 µM
[26]
  TGI: > 100 µM
[27]
  TGI: > 100 µM
[28]
  TGI: > 100 µM
[29]
  TGI: > 100 µM
[30]
  TGI: > 100 µM
[31]
  TGI: > 100 µM
[32]
  TGI: > 100 µM
[33]
  TGI: > 100 µM
[34]
  TGI: > 100 µM
[35]
  TGI: > 100 µM
[36]
  TGI: > 100 µM
[37]
  TGI: > 100 µM
[38]
  TGI: > 100 µM
[39]
  TGI: > 100 µM
[40]
  TGI: > 100 µM
[41]
  TGI: > 100 µM
[42]
  TGI: > 100 µM
[43]
  TGI: > 100 µM
[44]
  TGI: > 100 µM
[45]
  TGI: > 100 µM
[46]
  TGI: > 100 µM
[47]
  TGI: > 100 µM
[48]
  TGI: > 100 µM
[49]
  TGI: > 100 µM
[50]
  TGI: > 100 µM
[51]
  TGI: > 100 µM
[52]
  TGI: > 100 µM
[53]
  TGI: > 100 µM
[54]
  TGI: > 100 µM
[55]
  TGI: > 100 µM

## COC1CC(OC2C(C)OC(OC3C(C)OC(OC4C(O)CC(O[C@H]5CC[C@@]6(C)C(=CC[C@]7(O)[C@@H]6C[C@@H](OC(C)=O)[C@@]6(C)[C@]7(O)CC[C@@]6(O)C(C)=O)C5)OC4C)CC3OC)CC2OC)OC(C)C1O (stereo not given in full)
[1]
  TGI: > 12.5 µM
[3]
  TGI: > 12.5 µM
[4]
  TGI: > 12.5 µM
[5]
  TGI: > 12.5 µM
[6]
  TGI: > 12.5 µM
[56]
  TGI: > 12.5 µM
[7]
  TGI: > 12.5 µM
[8]
  TGI: > 12.5 µM
[9]
  TGI: > 12.5 µM
[57]
  TGI: > 12.5 µM
[10]
  TGI: > 12.5 µM
[11]
  TGI: > 12.5 µM
[12]
  TGI: > 12.5 µM
[13]
  TGI: > 12.5 µM
[14]
  TGI: > 12.5 µM
[15]
  TGI: > 12.5 µM
[16]
  TGI: > 12.5 µM
[17]
  TGI: > 12.5 µM
[18]
  TGI: > 12.5 µM
[19]
  TGI: > 12.5 µM
[20]
  TGI: > 12.5 µM
[21]
  TGI: > 12.5 µM
[22]
  TGI: > 12.5 µM
[23]
  TGI: > 12.5 µM
[24]
  TGI: > 12.5 µM
[25]
  TGI: > 12.5 µM
[26]
  TGI: > 12.5 µM
[27]
  TGI: > 12.5 µM
[28]
  TGI: > 12.5 µM
[29]
  TGI: > 12.5 µM
[31]
  TGI: > 12.5 µM
[32]
  TGI: > 12.5 µM
[58]
  TGI: > 12.5 µM
[33]
  TGI: > 12.5 µM
[34]
  TGI: > 12.5 µM
[35]
  TGI: > 12.5 µM
[36]
  TGI: > 12.5 µM
[59]
  TGI: > 12.5 µM
[38]
  TGI: > 12.5 µM
[39]
  TGI: > 12.5 µM
[40]
  TGI: > 12.5 µM
[41]
  TGI: > 12.5 µM
[43]
  TGI: > 12.5 µM
[44]
  TGI: > 12.5 µM
[45]
  TGI: > 12.5 µM
[46]
  TGI: > 12.5 µM
[47]
  TGI: > 12.5 µM
[48]
  TGI: > 12.5 µM
[49]
  TGI: > 12.5 µM
[50]
  TGI: > 12.5 µM
[51]
  TGI: > 12.5 µM
[52]
  TGI: > 12.5 µM
[53]
  TGI: > 12.5 µM
[54]
  TGI: > 12.5 µM
[55]
  TGI: > 12.5 µM
